Assay results from paper PMC4833300, “Identification of Trypanocidal Activity for Known Clinical Compounds Using a New Trypanosoma cruzi Hit-Discovery Screening Cascade” (PLoS Neglected Tropical Diseases, 2016).
Read-outs that look alike come from different tables or passages of the source.

Legend:
[1] = tested on: intracellular T. cruzi amastigotes; experiment: Primary high-content intracellular T. cruzi amastigote assay; type: cell-based, Trypanosoma cruzi (Silvio X10/7 A1) in Vero cells
Protocol: (§1) The compounds tested were obtained from the NIH (Clinical Collection) and from SelleckChem (FDA-approved drug library). Compounds were dispensed into black 384-well assay plates (Corning) by acoustic dispensing (LabCyte ECHO). […] Potencies are reported as pEC50 (-LOG(EC50[M])).
(§2) For the primary intracellular assay the infection conditions were chosen so that no trypomastigote egress occurs during the compound incubation time. First, Vero cells were infected overnight with tissue culture derived T. cruzi trypomastigotes in T225 tissue culture flasks (MOI 5). Next, any remaining free trypomastigotes were washed away with serum free MEM and the infected Vero cells were harvested by trypsinisation. The infected Vero cells were then plated into 384-well plates containing the compounds to be tested, at 4000 cells per well in MEM media with 1% FCS. […] The plates were imaged on a Perkin Elmer Operetta high-content imaging system using a 20x objective. Images were analysed using the Columbus system (Perkin Elmer). The algorithm for the primary assay first identified the Vero nuclei followed by demarcation of the cytoplasm and identification of intracellular amastigotes. This algorithm reported mean number of parasites per Vero cell and total number of Vero cells. Data analysis was as described in [22]. […] Hits from the primary screen were selected based on the following criteria: T. cruzi activity (percent inhibition) > (median T. cruzi percent inhibition + 3 x robust Standard Deviation) and Vero activity (percent inhibition) < (median percent Vero inhibition + 3 x robust Standard Deviation).

[2] = tested on: Vero cells; experiment: Host cell toxicity read-out of the primary assay (Vero cell count); type: cell-based; conditions: Chlorocebus sabaeus, Vero; hits of the bio-actives screen, 10-point dose-response, top concentration 50μM, 72h; read-out: pEC50 (Vero) (converted)
Protocol: as §1, §2

[3] = tested on: intracellular T. cruzi; experiment: Static-cidal assay (percent infected Vero cells, 96 h); type: cell-based, Trypanosoma cruzi (Silvio X10/7 A1) in Vero cells; conditions: for MAX PI / maximum inhibition in the static-cidal assay: 96h timeframe of the assay
Protocol: The secondary static-cidal assay uses the same protocol as the standard assay with the following changes: infection is done at MOI 10, and infected Vero cells are incubated 88h at 37°C in presence of 5% CO2 prior to trypsinisation and plating. Four hours after plating a control plate (no compounds) was fixed with formaldehyde as described above. Compound containing plates were fixed after incubation for 96 hours. Compounds are run as ten point dose response curves in triplicate. The algorithm for the secondary assay was similar to the primary assay but reported percent infected Vero cells instead of the mean number of parasites.
To assess screening hits for their ability to be cytocidal rather than cytostatic or growth slowing we developed a medium throughput (400 compounds / batch) assay to predict cidality of compounds against intracellular T. cruzi. […] Instead we developed an algorithm that assesses whether a Vero cell is infected or not, and we used the percentage of infected cells as primary measurement for the static-cidal assay. In order to readily identify cidal compounds we normalised the raw data using the starting level of infection as 0% effect and the final level of infection in presence of 50μM Nifurtimox as 100% effect control.

[4] = tested on: intracellular T. cruzi; experiment: Rate-of-kill assay (static-cidal assay in timecourse format); type: cell-based, Trypanosoma cruzi (Silvio X10/7 A1) in Vero cells; conditions: for MCC: Trypanosoma cruzi, -LOG(MCC[M]), minimum cidal concentration, lowest concentration clearing at least half as many Vero cells as Nifurtimox (50μM) within 96 h, read-out: pMCC (RoK) (converted); for rate-of-kill profile (onset / rate of cidal activity): timepoints every 24h up to 96 h; for final residual level of infection (percent infected cells at the end of the assay): end of rate-of-kill timecourse (96 h)
Protocol: The rate-of-kill assay uses the same protocol as the static-cidal assay but plates are incubated for 24, 48, 72 and 96 hours prior to fixing. Percent infected data is plotted as a time-course for each compound at every concentration. The minimum cidal concentration (MCC) is defined as the lowest concentration of compound that clears at least half as many Vero cells of intracellular parasites as Nifurtimox (50μM) within the timeframe of the assay.
To obtain rate-of-kill information we carried out the static-cidal assay in timecourse format (Fig 4A), with timepoints taken every 24h.

[5] = target: CYP51 (Trypanosoma cruzi, UniProt Q7Z1V1); experiment: biochemical; type: biochemical
[6] = humans; cited from earlier work
[7] = Trypanosoma cruzi; hits of the bio-actives screen, 10-point dose-response, top concentration 50μM, 72h; read-out: pEC50 (cruzi) (converted)
[8] = Trypanosoma cruzi, Vero, 96 h, 0% = starting level of infection, 100% = 50μM Nifurtimox at 96h, only from concentrations not toxic to the host cells, read-out: MAX PI (SC), Maximum Percent Inhibition in the static cidal assay
[9] = read-out: CYP51 pIC50 (converted)
[10] = Trypanosoma cruzi, 72 h; read-out: EC50
[11] = Trypanosoma cruzi, 72 h; read-out: Mean pEC50 (converted)

Chain of CYP51 (Q7Z1V1 whole entry): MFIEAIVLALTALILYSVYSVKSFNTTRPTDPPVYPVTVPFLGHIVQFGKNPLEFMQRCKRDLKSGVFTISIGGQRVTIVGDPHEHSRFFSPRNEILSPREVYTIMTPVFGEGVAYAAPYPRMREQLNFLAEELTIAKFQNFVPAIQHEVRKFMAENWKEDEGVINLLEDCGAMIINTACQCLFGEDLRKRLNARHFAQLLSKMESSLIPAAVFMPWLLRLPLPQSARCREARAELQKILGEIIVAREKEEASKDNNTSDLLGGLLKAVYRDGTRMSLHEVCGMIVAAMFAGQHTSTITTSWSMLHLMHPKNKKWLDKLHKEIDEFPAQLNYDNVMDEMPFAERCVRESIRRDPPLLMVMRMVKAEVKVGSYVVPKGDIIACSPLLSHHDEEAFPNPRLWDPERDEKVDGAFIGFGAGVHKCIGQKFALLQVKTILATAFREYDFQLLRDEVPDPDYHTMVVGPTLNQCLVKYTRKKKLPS

Row | SMILES | EC50 [1, 7] [nM] | EC50 [2] [nM] | Emax [3, 8] [%] | MCC [4] [M] | IC50 [5, 9] [nM] | rate-of-kill profile (onset / rate of cidal activity) [4] | oral bioavailability [6] | further results
1 | C[C@]12CC[C@H](O)CC1=CC[C@@H]1[C@@H]2CC[C@]2(C)C(c3cccnc3)=CC[C@@H]12 [Abiraterone] | 794 | 31600 | 60 | 5.01e-05 | > 1000 |  |  | 
2 | CCOC(=O)C1=C(COCCN)NC(C)=C(C(=O)OC)C1c1ccccc1Cl (centres unmarked) [Amlodipine] | 501 |  | 113 |  | > 10000 |  |  | 
3 | CN1CCCC(n2nc(Cc3ccc(Cl)cc3)c3ccccc3c2=O)CC1 (centres unmarked) [Azelastine] | 251 | 15800 | 106 | 2e-06 | > 10000 | a more delayed response | reasonable oral bioavailability | 
4 | O=C(Cn1ccnc1[N+](=O)[O-])NCc1ccccc1 [Benznidazole] |  |  |  |  | > 10000 | killing seen from 24h onwards |  | EC50 ([1]; Trypanosoma cruzi, 72 h): 490 nM; EC50 ([1]; Trypanosoma cruzi, 72 h, read-out: Mean pEC50 (converted)): 501 nM; MAX PI / maximum inhibition in the static-cidal assay [3]: around 100%; Emax ([3]; Trypanosoma cruzi, Vero, 96 h, read-out: MAX PI (SC), Maximum Percent Inhibition in the static cidal assay): 91%; final residual level of infection (percent infected cells at the end of the assay) [4]: ~ 8%
5 | c1ccc(-c2ccc(C(c3ccccc3)n3ccnc3)cc2)cc1 (centres unmarked) [Bifonazole] | 10 | 15800 | 69 | 6.31e-08 | 39.8 |  |  | 
6 | CN1CCC[C@@H]1CCO[C@](C)(c1ccccc1)c1ccc(Cl)cc1 [Clemastine] |  |  |  | 2e-07 |  |  | reasonable oral bioavailability | 
7 | CCOC(=O)C(C)(C)Oc1ccc(Cl)cc1 [Clofibrate] | 6310 | 15800 | 116 | 1.58e-05 |  |  | reasonable oral bioavailability | IC50 [5]: > 10000 nM
8 | CC(C(O)c1ccc(O)cc1)N1CCC(Cc2ccccc2)CC1 (centres unmarked) [Ifenprodil] | 501 | 50100 | 117 | 2e-06 | > 10000 |  | reasonable oral bioavailability | 
9 | CCC(C)n1ncn(-c2ccc(N3CCN(c4ccc(OCC5COC(Cn6cncn6)(c6ccc(Cl)cc6Cl)O5)cc4)CC3)cc2)c1=O (centres unmarked) [Itraconazole] | 10 | 15800 | 71 | 6.31e-08 |  |  |  | 
10 | CC(=O)N1CCN(c2ccc(OCC3COC(Cn4ccnc4)(c4ccc(Cl)cc4Cl)O3)cc2)CC1 (centres unmarked) [Ketoconazole] | 5.01 | 31600 | 61 | 7.94e-09 |  |  |  | EC50 [1, 10]: 2 nM; EC50 [1, 11]: 2 nM
11 | CC1CS(=O)(=O)CCN1/N=C/c1ccc([N+](=O)[O-])o1 (centres unmarked) [Nifurtimox] |  |  |  | 5.01e-06 |  | killing seen from 24h onwards |  | EC50 [1, 10]: 260 nM; EC50 [1, 11]: 251 nM; MAX PI / maximum inhibition in the static-cidal assay [3]: around 100%; inhibition at 50 µM [3, 8]: 103%; final residual level of infection (percent infected cells at the end of the assay) [4]: ~ 8%; IC50 [5]: > 10000 nM
12 | Cc1cn(-c2cc(NC(=O)c3ccc(C)c(Nc4nccc(-c5cccnc5)n4)c3)cc(C(F)(F)F)c2)cn1 [Nilotinib] | 2510 |  | 38 |  |  | a much slower rate |  | CYP51 inhibition (in words) [5]: strong CYP51 inhibition
13 | CC[C@@H]([C@H](C)O)n1ncn(-c2ccc(N3CCN(c4ccc(OC[C@@H]5CO[C@@](Cn6cncn6)(c6ccc(F)cc6F)C5)cc4)CC3)cc2)c1=O [Posaconazole] |  |  | 59 | 1e-07 |  | slower acting with a later onset of cidal activity |  | EC50 [1, 10]: 1 nM; EC50 [1, 11]: 1 nM; MAX PI / maximum inhibition in the static-cidal assay [3]: 60%; final residual level of infection (percent infected cells at the end of the assay) [4]: ~ 15%
14 | O=C1Cc2cc(CCN3CCN(c4nsc5ccccc45)CC3)c(Cl)cc2N1 [Ziprasidone] | 1580 | 25100 | 111 | 5.01e-06 | > 10000 | fast onset of cidality | reasonable oral bioavailability | 
